Assay results taken from paper PMC8776894 (Communications Biology, 2022).

Tests used:
[1] = test system: MCAO mice; experiment: Mortality after MCAO; type: in vivo, mouse; conditions: vehicle 29.06, P >0.05 vs vehicle
Method: Experimental ischemic stroke was performed by MCAO using published protocols[63],[64] with some modifications. In detail, mice (8–10 weeks)[65] were deeply anesthetized with 1.5% isoflurane in a mixture of 30% O2 and 69% N2O. Conditions of the blood gas were maintained at constant levels throughout the operation (PO2, 120 ± 10 mmHg; PCO2, 35 ± 3 mmHg) and temperatures in the temporal muscle and rectum were also maintained at 37.5 ± 0.2°C and 37.0 ± 0.1°C, respectively. Body temperature was kept in the normal range (36.5–37.5 °C) with a heating lamp and a heating pad during surgery. All surgical supplies and instruments were sterilized. The […] (CCA) and the external carotid artery were then gently separated. The blood flow of CCA was blocked with a sterile nylon suture (No.: MSMC21B120PK50, Ruiwode Bio-technology Co., Ltd., China), which was inserted into middle cerebral artery from CCA. The mice in the sham group underwent the same surgery without a nylon suture. After 60 min, the suture was removed and the blood circulation was recovered, MCAO/R was induced. Regional CBF was monitored in all stroke animals by LSCI (PeriScan PSI System; PERIMED, Stockholm, Sweden) to confirm a successful occlusion. […]

[2] = test system: mice; experiment: Histological analysis (H&E) of organs in acute toxicity test; type: in vivo, mouse
Method: Histological analysis. Organs such as heart, liver, kidney, and brain were excised and fixed in 10% formaldehyde for histological analysis. Their organs were collected and fixed with 4% PFA for 12-18 h, followed by dehydrating using an automatic dehydrator (Leica ASP-300S, Germany) and embedding in paraffin. Then, each sample was coronally cut (4 µm) using a rotatory microtome (Leica RM2245, Germany). The […]
Primary culture of neuron and microglia. Primary cortical neurons (1.0 × 10^5 cells per well in poly-L-lysine-coated 24-well plate) were obtained from fetal C57BL/6 mice of embryonic day 16–17.5, as previously reported1. After careful removal of meninges, cortical tissues were digested in dulbecco's modified eagle medium (DMEM, Gibco) containing 0.05% trypsin (Gibco) at 37 °C for 20 min. DMEM containing 10% FBS (Gibco) was then added to terminate the digestion. The mixture was homogenized by pipetting 120 times and was subsequently filtered with a 100-μm cell strainer (Biologix) and centrifuged at 1000 rpm for 5 min. Then, the cells were collected and resuspended by DMEM supplemented with 10% FBS (Gibco) and penicillin-streptomycin (Gibco).
The suspension was seeded into 24-well plates (10^5 cells/ml), and 4 h later, the medium was changed with Neurobasal medium (Gibco) containing 1% […] and 2% B27 supplement. […]

[3] = test system: HT22 cells (OGD/R); experiment: Seahorse extracellular acidification rate (ECAR); type: cell-based, mouse; conditions: dose-dependent
Method: HT22 cells were counted and plated at 8000 cells per well in a Seahorse XF96 Cell Culture Microplate for all experiments (Agilent). They were then treated with VK (0.0735 or 0.735 μM) for 24 h. […] Next, HT22 cells were washed after 24 h of incubation and were incubated in a 0% CO2 chamber at 37 °C for 1 h, before being placed into a Seahorse XFe96 Analyzer (Agilent). In OCR experiment, HT22 cells were treated, with 2 μM of oligomycin, 5 μM of FCCP, and 1 μM of rotenone and antimycin, respectively; to assess ECAR, they were treated with 1 μM of rotenone and antimycin and 50 mM of 2-DG. All OCR and ECAR data were normalized to cell number per well using WAVE (Agilent).

[4] = test system: mice; experiment: Coagulation function (PT, APTT, TT, FIB) in acute toxicity test; type: in vivo, mouse; conditions: VK 1.5-384 mg/kg single i.p., after 14th day
Method: Platelet aggregation function test. Venous blood from (normal healthy rabbits) was collected in 3 mL sodium citrate anticoagulation vacuum plastic tubes. The collected venous blood was centrifuged for 10 min at 100 × g at 4℃ to obtain the upper plasma, and the platelet rich plasma (PRP) was prepared, centrifuged again for 10 min at 2000 × g at 4°C to draw the upper plasma, the platelet poor plasma (PPP) was prepared and […] to a platelet concentration of 3×10^8 cells/ml was counted. The adjusted PRP was placed into a four-channel platelet aggregation instrument (Agg RAM, Helena Laboratories, USA) to determine the 5 min maximum platelet aggregation rate with adenosine diphosphate (ADP), arachidonic acid (AA), thrombin, collagen (COL) , and platelet-activating factor (PAF) or saline as inducers (at a final […]
Acute toxicity test. Systemic acute toxicity test by peritoneal injection was performed according to the guideline provided by Center for Drug Evaluation and Research. In addition to the normal group, male mice were randomly divided into the treated groups received a single dose of 1.5 mg/kg, 6 mg/kg, 24 mg/kg, 96 mg/kg and 384 body weight of VK. […]
The obtained plasma was analyzed using an automatic coagulation apparatus (CA1500). […]

## Gly-Arg-Pro-Hyp-Gly-Phe-Ser-Pro-Phe-Arg-Ile-Asp [VK, Vespakinin-M]
[1]; VK 150 μg/kg, 48 MCAO animals
  Death rate (mortality) of MCAO mice: 25%
[1]; VK 300 μg/kg, 64 MCAO animals
  Death rate (mortality) of MCAO mice: 18.75%
[2]; VK 96 and 384 mg/kg single i.p.
  karyopyknosis and cellular swelling of hepatocytes in liver: moderate
[2]; all treated groups after 14 days, H&E
  histopathology of brain, liver and kidney vs control: no changes at the cellular level
[3]
  glycolysis (extracellular acidification rate) in neurons: decreased glycolysis
[4]
  four coagulation (PT, APTT, TT, FIB): No obvious change
